Assay results published in ChEMBL document CHEMBL3885861, “Open TG-GATES”.

Species: Rattus norvegicus
Test: Open TG-GATES - Regimen: Daily Repeat
Format: toxicity, organism-based, Sprague-Dawley
Set-up: regimen Daily Repeat, gender Male, age 6 weeks
Conditions: in vivo, po, 150 mg/kg, route gavage, dose level High; for APTT / Bas / Eos / Fbg / Hb / Ht / Lym / MCH / MCHC / MCV / Mono / Neu / PT / Plat / RBC / Ret / WBC: tissue Blood; for KIDNEY_L / KIDNEY_R / KIDNEY_TOTAL: tissue Kidney; for LIVER: tissue Liver; for A/G / ALP / ALT / AST / BUN / CRE / Ca / Cl / DBIL / GLC / IP / K / LDH / Na / PL / RALB / TBIL / TC / TG / TP / gamma-GTP: tissue Plasma

`O=c1ccc2ccccc2o1` [COUMARIN] gave a TERMINAL_BW (72 h, time 3 day) of 168.7 g, an APTT (72 h, time 3 day) of 14.2 s and a Bas (72 h, time 3 day) of 0%. For the same compound, the Eos (72 h, time 3 day) was 1%, the Fbg (72 h, time 3 day) was 193.7 mg/dL and the Hb (72 h, time 3 day) was 14.6 g/dL. It also gave a Ht (72 h, time 3 day) of 43.8%, a Lym (72 h, time 3 day) of 80.8% and an MCH (72 h, time 3 day) of 21 pg. For the same compound, the MCHC (72 h, time 3 day) was 33.2%, the MCV (72 h, time 3 day) was 63.2 fL and the Mono (72 h, time 3 day) was 4.8%. The Neu (72 h, time 3 day) was 13.6%, the PT (72 h, time 3 day) was 11.5 s and the Plat (72 h, time 3 day) was 117.7 x10_4/uL. The RBC (72 h, time 3 day) was 693.6 x10_4/ul, the Ret (72 h, time 3 day) was 3.5% and the WBC (72 h, time 3 day) was 97.2 x10_2/uL. For the same compound, the KIDNEY_L (72 h, time 3 day) was 0.8 g, the KIDNEY_R (72 h, time 3 day) was 0.8 g and the KIDNEY_TOTAL (72 h, time 3 day) was 1.6 g. It also gave an LIVER (72 h, time 3 day) of 9.5 g, an A/G (72 h, time 3 day) of 2.2 and an ALP (72 h, time 3 day) of 1111.8 IU/L. It also gave an ALT (72 h, time 3 day) of 54.6 IU/L, an AST (72 h, time 3 day) of 72 IU/L and a BUN (72 h, time 3 day) of 16 mg/dL. It also gave a CRE (72 h, time 3 day) of 0.5 mg/dL, a Ca (72 h, time 3 day) of 10.9 mg/dL and a Cl (72 h, time 3 day) of 106 meq/L. For the same compound, the DBIL (72 h, time 3 day) was 0.072 mg/dL, the GLC (72 h, time 3 day) was 178.2 mg/dL and the IP (72 h, time 3 day) was 8 mg/dL. It also gave a K (72 h, time 3 day) of 4.8 meq/L, an LDH (72 h, time 3 day) of 162 IU/L and a Na (72 h, time 3 day) of 139.6 meq/L. For the same compound, the PL (72 h, time 3 day) was 168 mg/dL, the RALB (72 h, time 3 day) was 3.8 g/dL and the TBIL (72 h, time 3 day) was 0.3 mg/dL. The TC (72 h, time 3 day) was 95.2 mg/dL, the TG (72 h, time 3 day) was 30.2 mg/dL and the TP (72 h, time 3 day) was 5.6 g/dL. It also gave a gamma-GTP (72 h, time 3 day) of 1.8 IU/L, a TERMINAL_BW ([…], time 7 day) of 202.2 g and a TERMINAL_BW ([…], time 14 day) of 250.7 g. The TERMINAL_BW ([…], time 28 day) was 305.5 g, the APTT ([…], time 7 day) was 16.5 s and the Bas ([…], time 7 day) was 0%. For the same compound, the Eos ([…], time 7 day) was 1%, the Fbg ([…], time 7 day) was 236 mg/dL and the Hb ([…], time 7 day) was 13.3 g/dL. For the same compound, the Ht ([…], time 7 day) was 40.2%, the Lym ([…], time 7 day) was 81.2% and the MCH ([…], time 7 day) was 20.5 pg. The MCHC ([…], time 7 day) was 33%, the MCV ([…], time 7 day) was 62.2 fL and the Mono ([…], time 7 day) was 3.6%. The Neu ([…], time 7 day) was 14.2%, the PT ([…], time 7 day) was 11.5 s and the Plat ([…], time 7 day) was 121.9 x10_4/uL. The RBC ([…], time 7 day) was 646.6 x10_4/ul, the Ret ([…], time 7 day) was 5.4% and the WBC ([…], time 7 day) was 152.2 x10_2/uL. The APTT ([…], time 14 day) was 17.3 s, the Bas ([…], time 14 day) was 0% and the Eos ([…], time 14 day) was 1%. For the same compound, the Fbg ([…], time 14 day) was 238 mg/dL, the Hb ([…], time 14 day) was 13.5 g/dL and the Ht ([…], time 14 day) was 40.8%. For the same compound, the Lym ([…], time 14 day) was 77.6%, the MCH ([…], time 14 day) was 20 pg and the MCHC ([…], time 14 day) was 33.1%. The MCV ([…], time 14 day) was 60.5 fL, the Mono ([…], time 14 day) was 7.8% and the Neu ([…], time 14 day) was 13.8%. For the same compound, the PT ([…], time 14 day) was 11.4 s, the Plat ([…], time 14 day) was 129.9 x10_4/uL and the RBC ([…], time 14 day) was 674.8 x10_4/ul. The Ret ([…], time 14 day) was 5.1%, the WBC ([…], time 14 day) was 131.3 x10_2/uL and the APTT ([…], time 28 day) was 16.9 s. It also gave a Bas ([…], time 28 day) of 0%, an Eos ([…], time 28 day) of 1.2% and a Fbg ([…], time 28 day) of 229.8 mg/dL. The Hb ([…], time 28 day) was 14.7 g/dL, the Ht ([…], time 28 day) was 44.2% and the Lym ([…], time 28 day) was 79.4%. For the same compound, the MCH ([…], time 28 day) was 18.4 pg, the MCHC ([…], time 28 day) was 33.2% and the MCV ([…], time 28 day) was 55.3 fL. It also gave a Mono ([…], time 28 day) of 5.4%, a Neu ([…], time 28 day) of 14.2% and a PT ([…], time 28 day) of 11.4 s. It also gave a Plat ([…], time 28 day) of 120.2 x10_4/uL, an RBC ([…], time 28 day) of 800.8 x10_4/ul and a Ret ([…], time 28 day) of 2.9%. For the same compound, the WBC ([…], time 28 day) was 123.8 x10_2/uL, the KIDNEY_L ([…], time 7 day) was 0.9 g and the KIDNEY_R ([…], time 7 day) was 0.9 g. The KIDNEY_TOTAL ([…], time 7 day) was 1.8 g, the KIDNEY_L ([…], time 14 day) was 1.1 g and the KIDNEY_R ([…], time 14 day) was 1.1 g. It also gave a KIDNEY_TOTAL ([…], time 14 day) of 2.2 g, a KIDNEY_L ([…], time 28 day) of 1.2 g and a KIDNEY_R ([…], time 28 day) of 1.2 g. For the same compound, the KIDNEY_TOTAL ([…], time 28 day) was 2.4 g, the LIVER ([…], time 7 day) was 11.5 g and the LIVER ([…], time 14 day) was 14.4 g. The LIVER ([…], time 28 day) was 16.2 g, the A/G ([…], time 7 day) was 2 and the ALP ([…], time 7 day) was 807 IU/L. The ALT ([…], time 7 day) was 43.8 IU/L, the AST ([…], time 7 day) was 54.4 IU/L and the BUN ([…], time 7 day) was 13 mg/dL. The CRE ([…], time 7 day) was 0.6 mg/dL, the Ca ([…], time 7 day) was 10.9 mg/dL and the Cl ([…], time 7 day) was 104.2 meq/L. For the same compound, the DBIL ([…], time 7 day) was 0.058 mg/dL, the GLC ([…], time 7 day) was 180.2 mg/dL and the IP ([…], time 7 day) was 7.2 mg/dL. It also gave a K ([…], time 7 day) of 4.9 meq/L, an LDH ([…], time 7 day) of 181 IU/L and a Na ([…], time 7 day) of 139.2 meq/L. For the same compound, the PL ([…], time 7 day) was 182.2 mg/dL, the RALB ([…], time 7 day) was 4.1 g/dL and the TBIL ([…], time 7 day) was 0.2 mg/dL. It also gave a TC ([…], time 7 day) of 101.4 mg/dL, a TG ([…], time 7 day) of 33.4 mg/dL and a TP ([…], time 7 day) of 6.2 g/dL. It also gave a gamma-GTP ([…], time 7 day) of 1.4 IU/L, an A/G ([…], time 14 day) of 1.9 and an ALP ([…], time 14 day) of 789 IU/L. The ALT ([…], time 14 day) was 52.8 IU/L, the AST ([…], time 14 day) was 62.8 IU/L and the BUN ([…], time 14 day) was 16.8 mg/dL. The CRE ([…], time 14 day) was 0.6 mg/dL, the Ca ([…], time 14 day) was 11 mg/dL and the Cl ([…], time 14 day) was 106.4 meq/L. For the same compound, the DBIL ([…], time 14 day) was 0.072 mg/dL, the GLC ([…], time 14 day) was 181 mg/dL and the IP ([…], time 14 day) was 6.8 mg/dL. The K ([…], time 14 day) was 4.9 meq/L, the LDH ([…], time 14 day) was 188 IU/L and the Na ([…], time 14 day) was 139.8 meq/L. The PL ([…], time 14 day) was 198.6 mg/dL, the RALB ([…], time 14 day) was 4 g/dL and the TBIL ([…], time 14 day) was 0.2 mg/dL. It also gave a TC ([…], time 14 day) of 106.4 mg/dL, a TG ([…], time 14 day) of 49.4 mg/dL and a TP ([…], time 14 day) of 6.2 g/dL. For the same compound, the gamma-GTP ([…], time 14 day) was 1.2 IU/L, the A/G ([…], time 28 day) was 1.7 and the ALP ([…], time 28 day) was 689.6 IU/L. The ALT ([…], time 28 day) was 67.2 IU/L, the AST ([…], time 28 day) was 63 IU/L and the BUN ([…], time 28 day) was 19.6 mg/dL. For the same compound, the CRE ([…], time 28 day) was 0.6 mg/dL, the Ca ([…], time 28 day) was 11.2 mg/dL and the Cl ([…], time 28 day) was 106.6 meq/L. The DBIL ([…], time 28 day) was 0.046 mg/dL, the GLC ([…], time 28 day) was 177.6 mg/dL and the IP ([…], time 28 day) was 6.8 mg/dL. It also gave a K ([…], time 28 day) of 4.6 meq/L, an LDH ([…], time 28 day) of 147.2 IU/L and a Na ([…], time 28 day) of 139.2 meq/L. It also gave a PL ([…], time 28 day) of 222.8 mg/dL, an RALB ([…], time 28 day) of 4.4 g/dL and a TBIL ([…], time 28 day) of 0.2 mg/dL. For the same compound, the TC ([…], time 28 day) was 121.8 mg/dL, the TG ([…], time 28 day) was 70.8 mg/dL and the TP ([…], time 28 day) was 6.9 g/dL. It also gave a gamma-GTP ([…], time 28 day) of 0.6 IU/L.
